The text below walks through data of ChEMBL document CHEMBL5096225 (J Med Chem, 2022).

Converted amounts (≈) assume the structure as drawn.

This data set can be described thus: Solubility of the compound in deionized water. Type of data set: physicochemical.

What is called solubility is the concentration that dissolves in the medium under given conditions. `O=C(c1cc(O)cc(F)c1)c1cc(O)c(O)c([N+](=O)[O-])c1`: the concentration in solution (solubility) was 56 µg/mL (≈ 191 µM).
The value for `Cc1ccc(C(=O)c2cc(O)c(O)c([N+](=O)[O-])c2)cc1` [TOLCAPONE] was 45 µg/mL (≈ 165 µM).
